Test results: PubChem BioAssay (NCI)
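A five-concentration, 48-hour dose response in 96-well plates underlies each endpoint, interpolated linearly between surrounding concentrations. GI50 marks 50% less growth. At the TGI there is no net growth.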

How the values were obtained:
Assay in all cases: inhibition of tumour cell growth, NCI panel, 48 h
HT29 colon = tested on: HT29 colon
U251 CNS = tested on: U251 CNS
OVCAR-4 ovarian = tested on: OVCAR-4 ovarian
NCI-H23 lung = tested on: NCI-H23 lung
UO-31 renal = tested on: UO-31 renal
SK-MEL-28 melanoma = tested on: SK-MEL-28 melanoma
SK-MEL-5 melanoma = tested on: SK-MEL-5 melanoma
TK-10 renal = tested on: TK-10 renal
SR leukemia = tested on: SR leukemia
NCI/ADR-RES ovarian = tested on: NCI/ADR-RES ovarian
SK-MEL-2 melanoma = tested on: SK-MEL-2 melanoma
NCI-H226 lung = tested on: NCI-H226 lung
HCT-15 colon = tested on: HCT-15 colon
OVCAR-3 ovarian = tested on: OVCAR-3 ovarian
MOLT-4 leukemia = tested on: MOLT-4 leukemia
UACC-62 melanoma = tested on: UACC-62 melanoma
T-47D breast = tested on: T-47D breast
SF-295 CNS = tested on: SF-295 CNS
MDA-MB-435 = tested on: MDA-MB-435
OVCAR-5 ovarian = tested on: OVCAR-5 ovarian
KM12 colon = tested on: KM12 colon
786-0 renal = tested on: 786-0 renal
SW-620 colon = tested on: SW-620 colon
PC-3 prostate = tested on: PC-3 prostate
CAKI-1 renal = tested on: CAKI-1 renal
BT-549 breast = tested on: BT-549 breast
SF-539 CNS = tested on: SF-539 CNS
A549 NSCLC = tested on: A549 NSCLC
IGROV1 ovarian = tested on: IGROV1 ovarian
A498 renal = tested on: A498 renal
HS 578T breast = tested on: HS 578T breast
SN12C renal = tested on: SN12C renal
MALME-3M melanoma = tested on: MALME-3M melanoma
MDA-MB-231 breast = tested on: MDA-MB-231 breast
NCI-H460 lung = tested on: NCI-H460 lung
HL-60(TB) leukemia = tested on: HL-60(TB) leukemia
NCI-H522 lung = tested on: NCI-H522 lung
ACHN renal = tested on: ACHN renal
DU-145 prostate = tested on: DU-145 prostate
HOP-62 NSCLC = tested on: HOP-62 NSCLC
MCF7 breast = tested on: MCF7 breast
HCC-2998 colon = tested on: HCC-2998 colon
RXF 393 renal = tested on: RXF 393 renal
RPMI-8226 leukemia = tested on: RPMI-8226 leukemia
SF-268 CNS = tested on: SF-268 CNS
SNB-75 CNS = tested on: SNB-75 CNS
UACC-257 melanoma = tested on: UACC-257 melanoma
M14 melanoma = tested on: M14 melanoma
HOP-92 NSCLC = tested on: HOP-92 NSCLC
SNB-19 CNS = tested on: SNB-19 CNS
COLO 205 colon = tested on: COLO 205 colon
OVCAR-8 ovarian = tested on: OVCAR-8 ovarian
LOX IMVI melanoma = tested on: LOX IMVI melanoma
CCRF-CEM leukemia = tested on: CCRF-CEM leukemia
K-562 leukemia = tested on: K-562 leukemia
HCT-116 colon = tested on: HCT-116 colon

Work on `CN[C@@H](C)C(=O)N[C@H](C(=O)N1CCC[C@H]1c1nc(C(=O)c2ccc(F)cc2)cs1)C1CCCCC1` yielded a GI50 (HT29 colon) of 20.5 µM, a TGI (HT29 colon) of 42.8 µM and a GI50 (U251 CNS) of 15.6 µM. It also gave a TGI (U251 CNS) of 33.3 µM, a GI50 (OVCAR-4 ovarian) of 510 nM and a TGI (OVCAR-4 ovarian) of 13.9 µM. The GI50 (NCI-H23 lung) was 11.2 µM, the TGI (NCI-H23 lung) was > 62.1 µM and the GI50 (UO-31 renal) was 36.1 µM. For the same compound, the TGI (UO-31 renal) was > 94.3 µM, the GI50 (SK-MEL-28 melanoma) was 16.6 µM and the TGI (SK-MEL-28 melanoma) was 32 µM. It also gave a GI50 (SK-MEL-5 melanoma) of 13.6 µM, a TGI (SK-MEL-5 melanoma) of 28.7 µM and a GI50 (TK-10 renal) of 22.3 µM. For the same compound, the TGI (TK-10 renal) was 45.6 µM, the GI50 (SR leukemia) was 11.5 µM and the TGI (SR leukemia) was 38 µM. For the same compound, the GI50 (NCI/ADR-RES ovarian) was 21.2 µM, the TGI (NCI/ADR-RES ovarian) was > 66 µM and the GI50 (SK-MEL-2 melanoma) was 2930 nM. For the same compound, the TGI (SK-MEL-2 melanoma) was 23.8 µM, the GI50 (NCI-H226 lung) was 31.2 µM and the TGI (NCI-H226 lung) was > 100 µM. The GI50 (HCT-15 colon) was 27.7 µM, the TGI (HCT-15 colon) was > 95.9 µM and the GI50 (OVCAR-3 ovarian) was 25.5 µM. The TGI (OVCAR-3 ovarian) was > 100 µM, the GI50 (MOLT-4 leukemia) was 20 µM and the TGI (MOLT-4 leukemia) was 57 µM. For the same compound, the GI50 (UACC-62 melanoma) was 16.6 µM, the TGI (UACC-62 melanoma) was 35.2 µM and the GI50 (T-47D breast) was 20.4 µM. For the same compound, the TGI (T-47D breast) was 77.8 µM, the GI50 (SF-295 CNS) was 19.4 µM and the TGI (SF-295 CNS) was 46.1 µM. For the same compound, the GI50 (MDA-MB-435) was 16.3 µM, the TGI (MDA-MB-435) was 40.6 µM and the GI50 (OVCAR-5 ovarian) was 27 µM. The TGI (OVCAR-5 ovarian) was > 78.9 µM, the GI50 (KM12 colon) was 21.8 µM and the TGI (KM12 colon) was 51.4 µM. For the same compound, the GI50 (786-0 renal) was 17.1 µM, the TGI (786-0 renal) was 34 µM and the GI50 (SW-620 colon) was 27.4 µM. The TGI (SW-620 colon) was > 77.6 µM, the GI50 (PC-3 prostate) was 24.1 µM and the TGI (PC-3 prostate) was > 73.6 µM. The GI50 (CAKI-1 renal) was 34.9 µM, the TGI (CAKI-1 renal) was > 100 µM and the GI50 (BT-549 breast) was 11.7 µM. For the same compound, the TGI (BT-549 breast) was 26.7 µM, the GI50 (SF-539 CNS) was 838 nM and the TGI (SF-539 CNS) was 17.6 µM. The GI50 (A549 NSCLC) was 35.2 µM, the TGI (A549 NSCLC) was > 100 µM and the GI50 (IGROV1 ovarian) was 33.9 µM. The TGI (IGROV1 ovarian) was > 100 µM, the GI50 (A498 renal) was 6.59 µM and the TGI (A498 renal) was 25.4 µM. For the same compound, the GI50 (HS 578T breast) was 19 µM, the TGI (HS 578T breast) was 74.1 µM and the GI50 (SN12C renal) was 39.2 µM. For the same compound, the TGI (SN12C renal) was > 100 µM, the GI50 (MALME-3M melanoma) was 4.08 µM and the TGI (MALME-3M melanoma) was 20 µM. For the same compound, the GI50 (MDA-MB-231 breast) was 324 nM, the TGI (MDA-MB-231 breast) was 20.6 µM and the GI50 (NCI-H460 lung) was 27.8 µM. For the same compound, the TGI (NCI-H460 lung) was > 72.8 µM, the GI50 (HL-60(TB) leukemia) was 3.69 µM and the TGI (HL-60(TB) leukemia) was 20 µM. The GI50 (NCI-H522 lung) was 3.45 µM, the TGI (NCI-H522 lung) was 16.5 µM and the GI50 (ACHN renal) was 26.6 µM. For the same compound, the TGI (ACHN renal) was > 100 µM, the GI50 (DU-145 prostate) was 44.5 µM and the TGI (DU-145 prostate) was > 100 µM. For the same compound, the GI50 (HOP-62 NSCLC) was 20 µM, the TGI (HOP-62 NSCLC) was > 65 µM and the GI50 (MCF7 breast) was 16.1 µM. The TGI (MCF7 breast) was 32.8 µM, the GI50 (HCC-2998 colon) was 16 µM and the TGI (HCC-2998 colon) was 31.2 µM. For the same compound, the GI50 (RXF 393 renal) was 1940 nM, the TGI (RXF 393 renal) was 16.3 µM and the GI50 (RPMI-8226 leukemia) was 16.6 µM. The TGI (RPMI-8226 leukemia) was 55.4 µM, the GI50 (SF-268 CNS) was 46.9 µM and the TGI (SF-268 CNS) was > 100 µM. The GI50 (SNB-75 CNS) was 4.31 µM, the TGI (SNB-75 CNS) was 20.9 µM and the GI50 (UACC-257 melanoma) was 15.1 µM. It also gave a TGI (UACC-257 melanoma) of 31.2 µM, a GI50 (M14 melanoma) of 19.4 µM and a TGI (M14 melanoma) of 38.4 µM. It also gave a GI50 (HOP-92 NSCLC) of 2800 nM, a TGI (HOP-92 NSCLC) of 8.98 µM and a GI50 (SNB-19 CNS) of 53.9 µM. For the same compound, the TGI (SNB-19 CNS) was > 100 µM, the GI50 (COLO 205 colon) was 16.5 µM and the TGI (COLO 205 colon) was 31.9 µM. It also gave a GI50 (OVCAR-8 ovarian) of 11.1 µM, a TGI (OVCAR-8 ovarian) of 29.3 µM and a GI50 (LOX IMVI melanoma) of 19 µM. The TGI (LOX IMVI melanoma) was 37 µM, the GI50 (CCRF-CEM leukemia) was 20.5 µM and the TGI (CCRF-CEM leukemia) was > 84.6 µM. The GI50 (K-562 leukemia) was 17 µM, the TGI (K-562 leukemia) was 38.7 µM and the GI50 (HCT-116 colon) was 27 µM. The TGI (HCT-116 colon) was > 95.5 µM.
